From US10220112B2, “Cyclic antimicrobial pseudopeptides and uses thereof” (INSERM (INSTITUT NATIONAL DE LA SANTE ET DE LA RECHERCHE …, priority 2014, dated 2019)
Where two headings read alike, the source gives them in different places. Starred links: 1 amine or outer side, 2 acyl side, 3 side chain; linkers in the order of their positions; H or OH if unused. Non-standard residues stand in square brackets, D forms with d. Residues, ends and D or L forms follow the SMILES beside them. azaβ3(1Nal) = O=C(CN(Cc1cccc2ccccc12)N[*:1])[*:2]; X2 = O=C(CN(Cc1ccc2ccccc2c1)N[*:1])[*:2]; X1 = O=C(CN(CC(O)CO)N[*:1])[*:2]

Legend:
[1] = test system: Staphylococcus aureus strain Newman; settings: for S. aureus MIC: strain Newman; for Minimum Bactericidal Concentration (MBC), S. aureus: no colonies on BHI agar after 24 h 37°C
Description: (§1) The antibacterial activity of the synthesized peptides was measured using a standard microdilution assay. Two bacterial species were tested, Staphylococcus aureus strain Newman and Escherichia coli strain K12 XL-Blue. Bacterial strains were subcultured in Mueller-Hinton broth. […] Bacteria were grown to an optical density (600 nm) of 0.5 and diluted 10^3 times in MH broth. Cell density in wells was 10^5 cfu/mL. 100 μL of this suspension was mixed with 100 μL of 2-fold serial dilutions of peptides in the well of a microtitre plate. Purified peptides were first dissolved in appropriate solvent to a final concentration of 2 mg/mL, in the microtitre plate, dilutions were made in MH broth from 1 to 0.004 mg/mL. […] Results obtained in massic concentrations were converted to molar concentrations for proper comparisons. Tests were performed in triplicate.
(§2) The results presented in Table 2 below were obtained in triplicate as described in the case of Table 1 except that the starting concentration was […] instead of 1 mg/mL.

[2] = test system: Escherichia coli strain K12 XL-Blue; settings: for E. coli MIC: strain K12 XL-Blue; for Minimum Bactericidal Concentration (MBC), E. coli: no colonies on BHI agar after 24 h 37°C
Description: as §1, §2

[3] = test system: MRSA strain S. aureus N315; settings: Table 2
human erythrocytes = assay: Lytic activity against human erythrocytes; assay type: cell-based; settings: for Human cells % hemolysis at 500 μM / Human cells H50: Table 2; for Human cells H50: maximal concentration 500 μM; for Human cells H50 (peptide concentration at which half of the human erythrocytes are lysed): Table 1, 2 h 37°C, maximal concentration 1 mg/mL; for hemolysis at 0.2 mg/mL: 0.2 mg/mL (50 μM PepA1, 160 μM Pep11), value expected when choosing SEM concentration; for hemolysis at the MIC: human erythrocytes, at the peptide's MIC
Description: Human blood was collected from EFS (‘Etablissement Francais du Sang’) in Rennes (France). […] After centrifugation, the absorbance of the supernatant was measured at 414 nm. Three wells were positive controls, where the RBC were mixed with water 1% Triton X-100, in these wells the totality of RBC were hemolyzed and the release of hemoglobin was considered to be 100%. Three wells were negative controls, where the RBC were mixed with PBS buffer, in these wells hemolysis was considered to be null. The percentage of hemolysis in each test well was calculated by comparing with controls. For each peptide, bloods from three different donors were tested.

[4] = test system: VISA strain S. aureus Mu 50; settings: Table 2
[5] = Peptides stability in human sera (RP-HPLC)
Description: Peptides stability in human sera. […] The initial time was recorded, and at known time intervals, 100 μL of reaction solution was removed and quenched by adding 200 μL of 95% EtOH and adjusted at pH=2 to eliminate the effect of peptides adsorption to the protein of the human serum. The cloudy reaction sample was cooled (4° C.) for 15 minutes and then spun at 14 000 rpm (Eppendorf centrifuge) for 4 minutes to pellet the precipitated serum proteins.
The different peptides were incubated with human serum up to 10 hours, and their stability was analyzed and their half-lives determined by RP-HPLC (FIG. 1).

[6] = Table 2, starting concentration 500 μM
[7] = Table 1, 20 h 37°C, maximal concentration 1 mg/mL

## N=C(N)NCCC[C@@H]1NC(=O)CN(Cc2ccc3ccccc3c2)NC(=O)[C@H](Cc2ccccc2)NC(=O)[C@H](Cc2ccccc2)NC(=O)[C@H](CCCCN)NC(=O)CN(CC(O)CO)NC(=O)[C@H](CCCNC(=N)N)NC1=O (stereo partly shown) [Pep15, (FFΨ2-Nal-RR-ΨHyt-K)] (cyclo(FF[X2]RR[X1]K))
[1]; [6]
  S. aureus MIC: 2 µM
[2]; [6]
  E. coli MIC: 2 µM
[3]
  MRSA MIC: 2 µM
Human erythrocytes
  Human cells % hemolysis at 500 μM: 3%
  Human cells H50: nd (not detectable at the maximal concentration tested (500 μM))
[4]
  VISA MIC: 2 µM

## C[C@@H](O)[C@@H]1NC(=O)[C@H](CCCNC(=N)N)NC(=O)[C@H](CCCNC(=N)N)NC(=O)[C@H](CO)NC(=O)[C@H](Cc2c[nH]c3ccccc23)NC(=O)[C@H](Cc2ccccc2)NC(=O)[C@H](Cc2ccccc2)NC(=O)[C@H](CCCCN)NC1=O [Pep7] (cyclo(FFWSRRTK))
[1]; [7]
  S. aureus MIC: 30 µM
[1]; species not specified
  antibacterial activity, fold increase compared to Pep6: two-fold
[2]; [7]
  E. coli MIC: 13 µM
Human erythrocytes
  Human cells H50 (peptide concentration at which half of the human erythrocytes are lysed): 14 µM

## N=C(N)NCCC[C@@H]1NC(=O)[C@H](Cc2c[nH]c3ccccc23)NC(=O)[C@H](Cc2ccccc2)NC(=O)[C@H](Cc2ccccc2)NC(=O)[C@H](CCCCN)NC(=O)CN(CC(O)CO)NC(=O)[C@H](CCCNC(=N)N)NC1=O (stereo partly shown) [Pep11, (FFWRRΨHytK)] (cyclo(FFWRR[X1]K))
[1]; [7]
  S. aureus MIC: 7 µM
[1]; against the two model bacteria
  fold higher antibacterial activity compared to Pep10: four-fold
[1]
  Minimum Bactericidal Concentration (MBC), S. aureus: 16 µM
[2]; [7]
  E. coli MIC: 3 µM
[2]
  Minimum Bactericidal Concentration (MBC), E. coli: 8 µM
[5]
  higher stability in human serum than the PepA1 parental peptide: ~240 fold
Human erythrocytes
  fold less haemolytic on human erythrocytes than PepA1: about 12 fold
  fold less hemolytic compared to Pep10: six-fold
  hemolysis at 0.2 mg/mL: 10%
  Human cells H50 (peptide concentration at which half of the human erythrocytes are lysed): 840 µM
  hemolysis at the MIC: no hemolysis

## H-FFWLSRTK-NH2 [Pep5]
[1]
  MIC, fold higher than Pep4, S. aureus: two-fold
[2]
  MIC, fold higher than Pep4, E. coli: two-fold
Human erythrocytes
  Human cells H50 (peptide concentration at which half of the human erythrocytes are lysed): nd (not detectable at the maximal concentration tested (1 mg/mL, 300 to 900 μM))

## CC(C)C[C@@H]1NC(=O)[C@H](Cc2c[nH]c3ccccc23)NC(=O)[C@H](Cc2ccccc2)NC(=O)[C@H](Cc2ccccc2)NC(=O)[C@H](CCCCN)NC(=O)CN(CC(O)CO)NC(=O)[C@H](CCCNC(=N)N)NC(=O)[C@H](CCCNC(=N)N)NC1=O (stereo partly shown) [Pep10, (FFWLRRΨHytK)] (cyclo(FFWLRR[X1]K))
[1]
  MIC, fold lower compared to Pep9, S. aureus: four
[1]; [7]
  S. aureus MIC: 25 µM
[2]
  MIC, fold lower compared to Pep9, E. coli: seven-fold
[2]; [7]
  E. coli MIC: 13 µM
Human erythrocytes
  lysis of human erythrocytes (in words): slightly hemolytic
  Human cells H50 (peptide concentration at which half of the human erythrocytes are lysed): 150 µM

## C[C@@H](O)[C@@H]1NC(=O)[C@H](CCCNC(=N)N)NC(=O)[C@H](CCCNC(=N)N)NC(=O)[C@H](Cc2c[nH]c3ccccc23)NC(=O)[C@H](Cc2ccccc2)NC(=O)[C@H](Cc2ccccc2)NC(=O)[C@H](CCCCN)NC1=O [Pep8, (FFWRRTK)] (cyclo(FFWRRTK))
[1]; species not specified
  fold more antibacterial than Pep7: ~3 fold
Human erythrocytes
  fold less hemolytic than Pep7: 10 fold
  Human cells H50 (peptide concentration at which half of the human erythrocytes are lysed): 160 µM

## N=C(N)NCCC[C@@H]1NC(=O)[C@H](Cc2c[nH]c3ccccc23)NC(=O)[C@H](Cc2ccccc2)NC(=O)CN(Cc2cccc3ccccc23)NC(=O)[C@H](CCCCN)NC(=O)CN(CC(O)CO)NC(=O)[C@H](CCCNC(=N)N)NC1=O (stereo partly shown) [Pep12, (Ψ1Nal-FWRR-ΨHyt-K)] (cyclo([azaβ3(1Nal)]FWRR[X1]K))
[1]; [6]
  S. aureus MIC: 16 µM
[2]; [6]
  E. coli MIC: 16 µM
Human erythrocytes
  Human cells % hemolysis at 500 μM: 98%
  Human cells H50: 220 µM

## CC(C)[C@@H]1NC(=O)[C@H](CCCNC(=N)N)NC(=O)[C@H](CCCNC(=N)N)NC(=O)[C@H](Cc2c[nH]c3ccccc23)NC(=O)[C@H](Cc2ccccc2)NC(=O)[C@H](Cc2ccccc2)NC(=O)[C@H](CCCCN)NC1=O [Pep18, (FFWRRVK)] (cyclo(FFWRRVK))
[1]; [6]
  S. aureus MIC: 4 µM
[2]; [6]
  E. coli MIC: 4 µM
[3]
  MRSA MIC: 8 µM
[4]
  VISA MIC: 8 µM

## CC(C)N1CC(=O)N[C@@H](CCCCN)C(=O)NN(Cc2ccc3ccccc3c2)CC(=O)N[C@@H](Cc2ccccc2)C(=O)NN(Cc2ccc3ccccc3c2)CC(=O)N[C@@H](CCCNC(=N)N)C(=O)N[C@@H](CCCNC(=N)N)C(=O)N1 [Pep16, (Ψ2Nal-F-Ψ2Nal-RR-ΨV-K)]
Human erythrocytes
  Human cells H50: nd (not detectable at the maximal concentration tested (500 μM))

## H-FFSYWLSRRTK-NH2 [Pep2]
[1]; [7]
  S. aureus MIC: 170 µM
[2]; [7]
  E. coli MIC: 80 µM
Human erythrocytes
  Human cells H50 (peptide concentration at which half of the human erythrocytes are lysed): nd (not detectable at the maximal concentration tested (1 mg/mL, 300 to 900 μM))

## H-MLIFVHIIAPVISGCAIAFFSYWLSRRNTK-NH2 [PepA1, reference compound]
[1]; [7]
  S. aureus MIC: 8 µM
[1]
  Minimum Bactericidal Concentration (MBC), S. aureus: 16 µM
[2]; [7]
  E. coli MIC: 8 µM
[2]
  Minimum Bactericidal Concentration (MBC), E. coli: 16 µM
Human erythrocytes
  hemolysis at 0.2 mg/mL: 50%
  Human cells H50 (peptide concentration at which half of the human erythrocytes are lysed): 70 µM
  hemolysis at the MIC: 20%

## CC(C)C[C@H](NC(=O)[C@H](Cc1c[nH]c2ccccc12)NC(=O)[C@H](Cc1ccccc1)NC(=O)[C@@H](N)Cc1ccccc1)C(=O)N[C@@H](CCCNC(=N)N)C(=O)N[C@@H](CCCNC(=N)N)C(=O)NN(CC(=O)N[C@@H](CCCCN)C(N)=O)CC(O)CO (stereo partly shown) [Pep9, H-FFWLRRΨHytK-NH2] (H-FFWLRR[X1]K-NH2)
[1]
  MIC, fold lower compared to Pep4, S. aureus: two-fold
[1]; [7]
  S. aureus MIC: 100 µM
[2]; [7]
  E. coli MIC: 100 µM
Human erythrocytes
  lysis of human erythrocytes (in words): did not trigger detectable lysis
  Human cells H50 (peptide concentration at which half of the human erythrocytes are lysed): nd (not detectable at the maximal concentration tested (1 mg/mL, 300 to 900 μM))

## CC(C)N(CC(=O)N[C@@H](CCCCN)C(N)=O)NC(=O)[C@H](CCCNC(=N)N)NC(=O)[C@H](CCCNC(=N)N)NC(=O)CN(Cc1ccc2ccccc2c1)NC(=O)[C@H](Cc1ccccc1)NC(=O)CN(N)Cc1ccc2ccccc2c1 [Pep21, H-Ψ2Nal-F-Ψ2Nal-RR-ΨV-K-NH2]
Human erythrocytes
  Human cells H50: nd (not detectable at the maximal concentration tested (500 μM))

## CC(C)[C@@H]1NC(=O)[C@H](CCCNC(=N)N)NC(=O)[C@H](CCCNC(=N)N)NC(=O)CN(Cc2cccc3ccccc23)NC(=O)[C@H](Cc2ccccc2)NC(=O)CN(Cc2cccc3ccccc23)NC(=O)[C@H](CCCCN)NC1=O [Pep19, (Ψ1Nal-F-Ψ1Nal-RRVK)] (cyclo([azaβ3(1Nal)]F[azaβ3(1Nal)]RRVK))
[1]; [6]
  S. aureus MIC: 4 µM
[2]; [6]
  E. coli MIC: 4 µM
[3]
  MRSA MIC: 4 µM
Human erythrocytes
  Human cells % hemolysis at 500 μM: 7%
  Human cells H50: nd (not detectable at the maximal concentration tested (500 μM))
[4]
  VISA MIC: 4 µM

## H-FFWLSRRTK-NH2 [Pep4]
[1]; [7]
  S. aureus MIC: 200 µM
[2]; [7]
  E. coli MIC: 100 µM
Human erythrocytes
  Human cells H50 (peptide concentration at which half of the human erythrocytes are lysed): nd (not detectable at the maximal concentration tested (1 mg/mL, 300 to 900 μM))

## H-FFSWLSRRTK-NH2 [Pep3]
[1]; [7]
  S. aureus MIC: 190 µM
[2]; [7]
  E. coli MIC: 95 µM
Human erythrocytes
  Human cells H50 (peptide concentration at which half of the human erythrocytes are lysed): nd (not detectable at the maximal concentration tested (1 mg/mL, 300 to 900 μM))
